{"source": "ChEMBL document CHEMBL5055632", "about": "“Anti-Inflammatory and Antinociceptive Properties of Kielmeyerone A, a Chromenone Isolated from the Roots of Kielmeyera reticulata” (J Nat Prod, 2021)", "key": {"J774 [1]": {"test_system": "J774", "assay": "Cytotoxicity against LPS and IFN-gamma stimulated mouse J774 cells at 0.39 to 25 uM incubated for 72 hrs by alamar blue dye based colorimetric plate analysis", "type": "cell-based", "conditions": "j774, 72 h, dose 0.39-25 µM"}, "J774 [2]": {"test_system": "J774", "assay": "Antiinflammatory activity against mouse J774 cells assessed as inhibition of LPS/IFNgamma-stimulated NO production at 0.097 to 1.56 uM incubated for 24 hrs bu Griess reagent based assay", "type": "functional, cell-based", "conditions": "dose 0.097-1.56 µM"}, "Mus musculus [3]": {"test_system": "Mus musculus", "assay": "Antiinflammatory activity in ip dosed Swiss Webster mouse model of complete freund's adjuvant-induced paw edema assessed as reduction in paw edema when administered 40 mins before CFA injection by plethysmometer analysis", "type": "functional, organism-based", "conditions": "dose 12.5-50 mg/kg"}, "Mus musculus [4]": {"test_system": "Mus musculus", "assay": "Antinociceptive activity in ip dosed Swiss Webster mouse model of formalin-induced biphasic nociceptive response assessed as reduction in pain during late phase when administered 40 mins before formalin injection and measured after 10 to 30 mins post formalin challenge", "type": "functional, organism-based", "conditions": "dose 12.5-50 mg/kg, time 50-70 min"}, "Mus musculus [5]": {"test_system": "Mus musculus", "assay": "Antinociceptive activity in Swiss Webster mouse model of formalin-induced biphasic nociceptive response assessed as reduction in pain during early phase at 12.5 to 50 mg/kg, ip administered 40 mins before formalin injection and measured after 10 mins post formalin challenge", "type": "functional, organism-based", "conditions": "dose 12.5-50 mg/kg, time 50.0 min"}, "Mus musculus [6]": {"test_system": "Mus musculus", "assay": "Effect on motor performance in Swiss Webster mouse assessed as effect on relaxing or motor deficit at 100 mg/kg, ip measured up to 120 sec by rotarod test", "type": "ADME, organism-based", "conditions": "in vivo, 2 min"}, "Mus musculus [7]": {"test_system": "Mus musculus", "assay": "Antinociceptive activity in Swiss Webster mouse model of formalin-induced biphasic nociceptive response assessed as reduction in pain during late phase at 5 mg/kg, ip administered 40 mins before formalin injection and measured after 10 to 30 mins post formalin challenge", "type": "functional, organism-based", "conditions": "time 50-70 min"}, "Mus musculus [8]": {"test_system": "Mus musculus", "assay": "Antinociceptive activity in Swiss Webster mouse model of formalin-induced biphasic nociceptive response assessed as reduction in pain during early phase at 5 mg/kg, ip administered 40 mins before formalin injection and measured after 10 mins post formalin challenge", "type": "functional, organism-based", "conditions": "time 50.0 min"}, "Mus musculus [9]": {"test_system": "Mus musculus", "assay": "Antiinflammatory activity in Swiss Webster mouse model of complete freund's adjuvant-induced paw edema assessed as reduction in paw edema at 2 mg/kg, ip administered 40 mins before CFA injection by plethysmometer analysis", "type": "functional, organism-based"}}, "note": "The source made the active and inactive calls. The rule behind the calls is not given here.", "data": [{"smiles": "CC(C)=CCC1(CC=C(C)C)C(=O)c2c(CC(C)C)cc(=O)oc2C(C(=O)CC(C)C)=C1O", "values": [{"measurement": "Activity", "setting": "J774 [1]", "result": "Non-Toxic"}, {"measurement": "inhibition", "setting": "J774 [2]", "result": "Active"}, {"measurement": "Activity", "setting": "Mus musculus [3]", "result": "Dose-dependent effect"}, {"measurement": "Activity", "setting": "Mus musculus [4]", "result": "inactive"}, {"measurement": "Activity", "setting": "Mus musculus [5]", "result": "Dose-dependent effect"}, {"measurement": "Activity", "setting": "Mus musculus [6]", "result": "Non-Toxic"}]}, {"smiles": "CN1CC[C@]23c4c5ccc(O)c4O[C@H]2[C@@H](O)C=C[C@H]3[C@H]1C5", "values": [{"measurement": "Activity", "setting": "Mus musculus [7]", "result": "Active"}, {"measurement": "Activity", "setting": "Mus musculus [8]", "result": "Active"}]}, {"smiles": "COc1ccc2c(c1)c(CC(=O)O)c(C)n2C(=O)c1ccc(Cl)cc1", "values": [{"measurement": "Activity", "setting": "Mus musculus [7]", "result": "Active"}, {"measurement": "Activity", "setting": "Mus musculus [8]", "result": "inactive"}]}, {"smiles": "C[C@@H]1C[C@H]2[C@@H]3CCC4=CC(=O)C=C[C@]4(C)[C@@]3(F)[C@@H](O)C[C@]2(C)[C@@]1(O)C(=O)CO", "values": [{"measurement": "Activity", "setting": "Mus musculus [9]", "result": "Active"}]}]}
